Laboratory results taken from patent US20240239792A1, “MODULATORS OF BCL-2 OR BCL-2/BCL-XL AND USES THEREOF” (APPICINE THERAPEUTICS (HK) LIMITED, priority 2021, published 2024).

Assays:
[1] = tested on: DOHH2 cells; assay: CellTiter-Glo cell proliferation assay, DOHH2 cells; type: cell-based; conditions: Homo sapiens, DOHH-2, 72 hours
In short: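 GI50 derived from CellTiter-Glo luminescent viability signal. Cells grown in DMEM with 10% FBS received a compound dilution series for 72 h (37 °C, 5% CO2).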

[2] = target: T1, BCL-2 (Homo sapiens, UniProt P10415); assay: HTRF BCL-2/BAK assay (Cisbio); type: binding; conditions: recombinant human Tag1-BCL-2 2 nM, Tag2-BAK 10 nM
T1 construct: purchased Cisbio 63ADK000CB01PEG
Description: (§1) Then the pre-mixed anti-Tag1-Eu^3+ and anti-tag2-XL665 were added to the plate and further incubated at room temperature for another 2 hours. The signals ([…]) were read on Envision 2104 instrument. The IC50 for each compound was derived from fitting the signal of 665/615 nM to the increasing compound concentration.
(§2) Using the above assays, the following compounds were tested.

[3] = target: T2, BCL-XL (Homo sapiens, UniProt Q07817); assay: HTRF BCL-XL/BAK assay (Cisbio); type: binding; conditions: recombinant human Tag1-BCL-XL 2 nM, Tag2-BAK 5 nM
T2 construct: purchased Cisbio 63ADK000CB04PEG
Description: as §1, §2

T2 sequence (Q07817 whole entry): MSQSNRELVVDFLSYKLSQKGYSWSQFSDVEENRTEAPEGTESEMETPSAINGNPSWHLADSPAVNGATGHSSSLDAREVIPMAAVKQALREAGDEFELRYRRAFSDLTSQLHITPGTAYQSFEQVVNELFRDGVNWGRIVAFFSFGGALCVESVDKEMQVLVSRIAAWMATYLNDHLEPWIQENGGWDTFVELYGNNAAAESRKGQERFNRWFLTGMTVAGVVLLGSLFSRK
T1 sequence (P10415 whole entry): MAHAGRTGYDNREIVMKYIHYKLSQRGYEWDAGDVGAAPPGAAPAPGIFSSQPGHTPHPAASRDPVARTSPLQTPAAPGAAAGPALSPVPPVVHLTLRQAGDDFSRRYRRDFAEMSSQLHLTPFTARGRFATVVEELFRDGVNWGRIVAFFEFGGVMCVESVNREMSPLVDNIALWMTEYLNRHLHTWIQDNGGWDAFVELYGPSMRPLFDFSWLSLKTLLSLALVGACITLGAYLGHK

| SMILES | IC50 [2] [nM] | IC50 [3] [nM] | GI50 [1] [nM] |
| --- | --- | --- | --- |
| O=C(NS(=O)(=O)c1ccc(NCC2(O)CCN(C3COC3)CC2)c([N+](=O)[O-])c1)c1ccc(N2CCN([C@@H]3CCCCc4c(Cl)cc(F)cc43)CC2)cc1Oc1cnc2[nH]ccc2c1 [Compound 88, (R)-2-((1H-pyrrolo[2,3-b]pyridin-5-yl)oxy)-4-(4-(1-chloro-3-fluoro-6,7,8,9-tetrahydro-5H-benzo[7]annulen-5-yl)piperazin-1-yl)-N-((4-(((4-hydroxy-1-(oxetan-3-yl)piperidin-4-yl)methyl)amino)-3-nitrophenyl)sulfonyl)benzamide] | < 20 | < 20 | < 50 |
| O=C(NS(=O)(=O)c1ccc(NCC2CC3(CCOCC3)C2)c([N+](=O)[O-])c1)c1ccc(N2CCN([C@@H]3CCCCc4c(Cl)cccc43)CC2)cc1Oc1cnc2[nH]ccc2c1 [Compound 99, (R)-2-((1H-pyrrolo[2,3-b]pyridin-5-yl)oxy)-N-((4-(((7-oxaspiro[3.5]nonan-2-yl)methyl)amino)-3-nitrophenyl)sulfonyl)-4-(4-(1-chloro-6,7,8,9-tetrahydro-5H-benzo[7]annulen-5-yl)piperazin-1-yl)benzamide] | < 20 | 20 to 200 | < 50 |
| CC1(C)COCCC1CNc1ccc(S(=O)(=O)NC(=O)c2ccc(N3CCN([C@@H]4CCCCc5c(Cl)cccc54)CC3)cc2Oc2cnc3[nH]ccc3c2)cc1[N+](=O)[O-] (stereo partly drawn) [Compound 101, 2-((1H-pyrrolo[2,3-b]pyridin-5-yl)oxy)-4-(4-((R)-1-chloro-6,7,8,9-tetrahydro-5H-benzo[7]annulen-5-yl)piperazin-1-yl)-N-((4-(((3,3-dimethyltetrahydro-2H-pyran-4-yl)methyl)amino)-3-nitrophenyl)sulfonyl)benzamide] | < 20 | 20 to 200 | < 50 |
| CC1(C)CC(CNc2ccc(S(=O)(=O)NC(=O)c3ccc(N4CCN([C@@H]5CCCCc6c(Cl)cccc65)CC4)cc3Oc3cnc4[nH]ccc4c3)cc2[N+](=O)[O-])CCO1 (stereo partly drawn) [Compound 102, 2-((1H-pyrrolo[2,3-b]pyridin-5-yl)oxy)-4-(4-((R)-1-chloro-6,7,8,9-tetrahydro-5H-benzo[7]annulen-5-yl)piperazin-1-yl)-N-((4-(((2,2-dimethyltetrahydro-2H-pyran-4-yl)methyl)amino)-3-nitrophenyl)sulfonyl)benzamide] | < 20 | 20 to 200 | < 50 |
| CC(C)(C)OC(=O)NCCN1CCC2(CC1)CC(CNc1ccc(S(=O)(=O)NC(=O)c3ccc(N4CCN([C@@H]5CCCCc6c(Cl)cccc65)CC4)cc3Oc3cnc4[nH]ccc4c3)cc1[N+](=O)[O-])C2 [Compound 109, tert-butyl (R)-(2-(2-(((4-(N-(2-((1H-pyrrolo[2,3-b]pyridin-5-yl)oxy)-4-(4-(1-chloro-6,7,8,9-tetrahydro-5H-benzo[7]annulen-5-yl)piperazin-1-yl)benzoyl)sulfamoyl)-2-nitrophenyl)amino)methyl)-7-azaspiro[3.5]nonan-7-yl)ethyl)carbamate] | < 20 | 20 to 200 | < 50 |
| NCCN1CCC2(CC1)CC(CNc1ccc(S(=O)(=O)NC(=O)c3ccc(N4CCN([C@@H]5CCCCc6c(Cl)cccc65)CC4)cc3Oc3cnc4[nH]ccc4c3)cc1[N+](=O)[O-])C2 [Compound 110, (R)-2-((1H-pyrrolo[2,3-b]pyridin-5-yl)oxy)-N-((4-(((7-(2-aminoethyl)-7-azaspiro[3.5]nonan-2-yl)methyl)amino)-3-nitrophenyl)sulfonyl)-4-(4-(1-chloro-6,7,8,9-tetrahydro-5H-benzo[7]annulen-5-yl)piperazin-1-yl)benzamide] | < 20 | < 20 | < 50 |

Now from value to compound, other results behind:

| IC50 [2] [nM] | IC50 [3] [nM] | SMILES | GI50 [1] [nM] |
| --- | --- | --- | --- |
| < 20 | 20 to 200 | O=C(NS(=O)(=O)c1ccc(NCCN2CCC3(CC2)COC3)c([N+](=O)[O-])c1)c1ccc(N2CCN([C@@H]3CCCCc4c(Br)cc(F)cc43)CC2)cc1Oc1cnc2[nH]ccc2c1 [Compound 80, (R)-2-((1H-pyrrolo[2,3-b]pyridin-5-yl)oxy)-N-((4-((2-(2-oxa-7-azaspiro[3.5]nonan-7-yl)ethyl)amino)-3-nitrophenyl)sulfonyl)-4-(4-(1-bromo-3-fluoro-6,7,8,9-tetrahydro-5H-benzo[7]annulen-5-yl)piperazin-1-yl)benzamide] | 500 to 5000 |
| < 20 | < 20 | O=C(NS(=O)(=O)c1ccc(NCC2CCN(C3COC3)CC2)c([N+](=O)[O-])c1)c1ccc(N2CCN([C@@H]3CCCCc4c(Cl)cccc43)CC2)cc1Oc1cnc2[nH]ccc2c1 [Compound 83, (R)-2-((1H-pyrrolo[2,3-b]pyridin-5-yl)oxy)-4-(4-(1-chloro-6,7,8,9-tetrahydro-5H-benzo[7]annulen-5-yl)piperazin-1-yl)-N-((3-nitro-4-(((1-(oxetan-3-yl)piperidin-4-yl)methyl)amino)phenyl)sulfonyl)benzamide] | < 50 |
| < 20 | 20 to 200 | O=C(NS(=O)(=O)c1ccc(NCCN2CCN(C3COC3)CC2)c([N+](=O)[O-])c1)c1ccc(N2CCN([C@@H]3CCCCc4c(Cl)cccc43)CC2)cc1Oc1cnc2[nH]ccc2c1 [Compound 84, (R)-2-((1H-pyrrolo[2,3-b]pyridin-5-yl)oxy)-4-(4-(1-chloro-6,7,8,9-tetrahydro-5H-benzo[7]annulen-5-yl)piperazin-1-yl)-N-((3-nitro-4-((2-(4-(oxetan-3-yl)piperazin-1-yl)ethyl)amino)phenyl)sulfonyl)benzamide] | < 50 |
| < 20 | < 20 | O=C(NS(=O)(=O)c1ccc(NCC2(O)CCN(C3COC3)CC2)c([N+](=O)[O-])c1)c1ccc(N2CCN([C@@H]3CCCCc4c(Cl)cccc43)CC2)cc1Oc1cnc2[nH]ccc2c1 [Compound 85, (R)-2-((1H-pyrrolo[2,3-b]pyridin-5-yl)oxy)-4-(4-(1-chloro-6,7,8,9-tetrahydro-5H-benzo[7]annulen-5-yl)piperazin-1-yl)-N-((4-(((4-hydroxy-1-(oxetan-3-yl)piperidin-4-yl)methyl)amino)-3-nitrophenyl)sulfonyl)benzamide] | < 50 |
| < 20 | < 20 | CN1CCC(CNc2ccc(S(=O)(=O)NC(=O)c3ccc(N4CCN([C@@H]5CCCCc6c(Cl)cc(F)cc65)CC4)cc3Oc3cnc4[nH]ccc4c3)cc2[N+](=O)[O-])CC1 [Compound 86, (R)-2-((1H-pyrrolo[2,3-b]pyridin-5-yl)oxy)-4-(4-(1-chloro-3-fluoro-6,7,8,9-tetrahydro-5H-benzo[7]annulen-5-yl)piperazin-1-yl)-N-((4-(((1-methylpiperidin-4-yl)methyl)amino)-3-nitrophenyl)sulfonyl)benzamide] | < 50 |
| < 20 | 20 to 200 | O=C(NS(=O)(=O)c1ccc(NCC2CCOCC2)c([N+](=O)[O-])c1)c1ccc(N2CCN([C@@H]3CCCCc4c(Cl)cc(F)cc43)CC2)cc1Oc1cnc2[nH]ccc2c1 [Compound 87, (R)-2-((1H-pyrrolo[2,3-b]pyridin-5-yl)oxy)-4-(4-(1-chloro-3-fluoro-6,7,8,9-tetrahydro-5H-benzo[7]annulen-5-yl)piperazin-1-yl)-N-((3-nitro-4-(((tetrahydro-2H-pyran-4-yl)methyl)amino)phenyl)sulfonyl)benzamide] | < 50 |
